In paper PMC9246096, “Structure-activity relationship studies for inhibitors for vancomycin-resistant Enterococcus and human carbonic anhydrases” (Journal of Enzyme Inhibition and Medicinal Chemistry, 2022):
Values after ≈ are worked out from the molar mass of the structure shown. Read-outs that look alike come from different tables or passages of the source.

Key:
E. faecium γ-CA (Efγ-CA) = E. faecium γ-CA (Efγ-CA) (Enterococcus faecium, UniProt Q3XX77); assay: biochemical; assay type: biochemical; conditions: recombinant Efγ-CA, Ki from IC50 via Cheng–Prusoff
Description: (§1) Both Efα-CA and Efγ-CA were recombinantly expressed and purified as follows. A pHis2 plasmid (GenScript) containing either the Efα-CA sequence or Efγ-CA sequence was used for the expression of hexa-histidine tagged protein in a bacterial culture. […] Starter cultures were grown at 37 °C with shaking at 225 rpm overnight. One litre of autoclaved Luria-Bertani broth containing 100 µg/mL ampicillin and 1 mM ZiCl2 was inoculated with a 10-ml aliquot of the starter culture and grown at 37 °C with shaking at 225 rpm to an OD of 0.8 before being cold shocked and induced with 500 µL of IPTG (1 M). The induced cultures were grown for 16 h at 17 °C with shaking at 225 rpm. Bacterial cell pellets were spun down at 4000 g for 20 min and resuspended in 1× PBS containing 0.5 mM TCEP, 5% glycerol, pH = 7.4 to which 5 mg lysozyme was added to aid in lysis. The resuspended bacterial cells were incubated on ice for 20 min and then lysed via sonication. Lysed bacterial cells were pelleted by centrifugation at 14,000 g for 1 h to remove cellular debris, and the supernatant was loaded onto a nickel-NTA column equilibrated with 1x PBS containing 0.5 mM TCEP, 5% glycerol, pH = 7.4. Once flowthrough was collected, the protein was eluted using a 0–500 mM imidazole stepwise gradient in the same equilibration buffer, and fractions were collected. Fractions that contained the desired protein, as determined by SDS-PAGE, were combined and subjected to TEV protease for His-tag cleavage. After the addition of TEV, the protein was dialysed for 4 h against 1× PBS containing 0.5 mM TCEP, 5% glycerol, pH = 7.4. The dialysed protein solution was loaded back onto a nickel-NTA column equilibrated with 1x PBS containing 0.5 mM TCEP, 5% glycerol, pH = 7.4 for the subtraction of TEV followed by its elution with the same buffer containing 500 mM imidazole. The protein eluted prior to the imidazole was concentrated using Amicon Ultra Centrifugal Filters and purified by size-exclusion chromatography (SEC) on an S100 column using running buffer 1x PBS containing 0.5 mM TCEP, 5% glycerol, pH = 7.4. Fractions that contained the protein of interest as confirmed by SDS-PAGE were concentrated, flash frozen, and placed in −80 °C for future use.
(§2) The assay was performed according to previously published protocols. Recombinant Efα-CA and Efγ-CA was obtained as described above and hCA I and hCA II were purchased from Millipore Sigma (hCA I Catalog# C4396-5MG; hCA II Catalog #C6624-500UG). Ki values were determined from inputting the IC50 values into the Cheng–Prusoff equation[25] for Ki from catalytic inhibition constants.

human CA II (hCAII) = molecular target: human CA II (hCAII); set-up: method as in PMID 24316122; conditions: previously reported; read-out: Ki hCA II; cited from earlier work
E. faecium α-CA (Efα-CA) = E. faecium α-CA (Efα-CA) (Enterococcus faecium, UniProt Q3XYE8); assay type: biochemical
Description: as §1, §2

human CA I (hCAI) = molecular target: human CA I (hCAI); set-up: method as in PMID 24316122; conditions: previously reported; read-out: Ki hCA I; cited from earlier work
VRE strains = conditions: full data set published by Kaur et al.; cited from earlier work
[1] = recombinant Efα-CA; Ki from IC50 via Cheng–Prusoff; read-out: Ki Efα-CA
[2] = read-out: Ki Efα-CA; recombinant Efα-CA; Ki from IC50 via Cheng–Prusoff

E. faecium γ-CA (Efγ-CA), sequence (Q3XX77 entry or part of it): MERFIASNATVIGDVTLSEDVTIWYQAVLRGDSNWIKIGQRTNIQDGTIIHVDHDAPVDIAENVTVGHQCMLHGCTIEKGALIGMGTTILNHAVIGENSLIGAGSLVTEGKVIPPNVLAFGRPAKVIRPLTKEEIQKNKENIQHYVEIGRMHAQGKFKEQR
E. faecium α-CA (Efα-CA), sequence (Q3XYE8 entry or part of it): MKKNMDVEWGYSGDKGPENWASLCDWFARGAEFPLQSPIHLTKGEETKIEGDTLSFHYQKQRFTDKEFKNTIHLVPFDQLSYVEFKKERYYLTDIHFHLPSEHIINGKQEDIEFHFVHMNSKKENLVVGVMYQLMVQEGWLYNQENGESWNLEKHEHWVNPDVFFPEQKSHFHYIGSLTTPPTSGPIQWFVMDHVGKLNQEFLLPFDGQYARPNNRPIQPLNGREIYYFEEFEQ

| Structure (SMILES) | Ki (E. faecium γ-CA (Efγ-CA); read-out: Ki Efγ-CA) | Ki (human CA II (hCAII)) | Ki (E. faecium α-CA (Efα-CA); [1]) | Ki (human CA I (hCAI)) | Ki (E. faecium γ-CA (Efγ-CA); Ki Efγ-CA) | Ki (E. faecium α-CA (Efα-CA); [2]) | MIC (VRE strains) |
| --- | --- | --- | --- | --- | --- | --- | --- |
| CC1(C(=O)Nc2nnc(S(N)(=O)=O)s2)CCCCC1 [Cmpd 12] | 240 nM | 47.7 nM | 44.5 nM | 117 nM | – | – | – |
| NS(=O)(=O)c1nnc(NCC2CCCCC2)s1 [Cmpd 27] | – | – | – | 1140 nM | 398 nM | 117 nM | – |
| NS(=O)(=O)c1nnc(NCc2ccccc2)s1 [Cmpd 28] | 282 nM | – | 163 nM | 1620 nM | – | – | – |
| NS(=O)(=O)c1nnc(NC(=O)CC2CC2)s1 [Cmpd 15] | 311 nM | 7.6 nM | 11.7 nM | 372 nM | – | – | – |
| CC(C)(C)CC(=O)Nc1nnc(S(N)(=O)=O)s1 [Cmpd 6] | 389 nM | 7.3 nM | 69.6 nM | 231 nM | – | – | 0.015 µg/mL (≈ 0.0539 µM) |
| NS(=O)(=O)c1nnc(NC(=O)C2CC2)s1 [Cmpd 8] | 193 nM | 24.6 nM | 36.2 nM | 157 nM | – | – | – |
| CC(C)CC(=O)Nc1nnc(S(N)(=O)=O)s1 [Cmpd 5] | 279 nM | 55.6 nM | 62.7 nM | 215 nM | – | – | – |
| NS(=O)(=O)c1nnc(NC(=O)CCC2CCCCC2)s1 [Cmpd 20] | – | – | – | 946 nM | 346 nM | – | 0.007 µg/mL (≈ 0.022 µM) |
| NS(=O)(=O)c1nnc(NC(=O)c2ccccc2)s1 [Cmpd 14] | – | – | – | 109 nM | 94.8 nM | – | – |
| CCNc1nnc(S(N)(=O)=O)s1 [Cmpd 26] | – | – | – | 701 nM | 505 nM | 165 nM | – |
| NS(=O)(=O)c1nnc(NC(=O)CC2CCC2)s1 [Cmpd 16] | 408 nM | 4.9 nM | 18.4 nM | 77.8 nM | – | – | – |
| NS(=O)(=O)c1nnc(NC(=O)C2CCCCC2)s1 [Cmpd 11] | – | – | – | 63.3 nM | 131 nM | 49.3 nM | – |
| NS(=O)(=O)c1nnc(NC(=O)C2CCC2)s1 [Cmpd 9] | 286 nM | 41.5 nM | 27.2 nM | 125 nM | – | – | – |
| CCCC(=O)Nc1nnc(S(N)(=O)=O)s1 [Cmpd 4] | – | – | – | – | 325 nM | 50.1 nM | – |
| NS(=O)(=O)c1nnc(NC(=O)CN2CCCC2)s1 [Cmpd 22] | 92.8 nM | 58.1 nM | 38.1 nM | 64.7 nM | – | – | – |
